Experimental data: paper doi:10.1101/2024.11.09.622805v1 (bioRxiv, 2024)

Legend:
[1] = stated in discussion, no reference given; cited from earlier work
HT-22 cells = assay type: cell-based, mouse
[2] = system: SNAP-25, Syntaxin-1A, AT1A3; experiment: Immunocytochemistry of porosome proteins in Alzheimer's neurons; assay type: cell-based, mouse; conditions: Alzheimer's neurons WT-APP (Aβ)

SMILES: O=c1cc(-c2ccc(O)cc2)oc2cc(O)cc(O)c12 [Apigenin]
- passage through the blood-brain barrier [1]: can pass through the blood-brain barrier
- mitoSOX, peptide plus Apigenin (HT-22 cells; AD neurons, peptide and Apigenin combined): near normal levels
- mitoSOX, effect of Apigenin (HT-22 cells; HT-22, Apigenin 5 or 10 μM with DA1 1 μM, Aβ1–42 10 μM 12 h): not much change
- immunoreactivity of SNAP-25, Syntaxin-1A and AT1A3, single agent [2]: Modest increase
